Laboratory results from patent publication US6818407B2, “Anti-endotoxic antimicrobial cationic peptides and methods of use therfor” (priority 1998, dated 2004).
Marks after values point to notes of the source that are not given here. Ends that are not written are not given here.

Key:
[1] = test system: Pseudomonas aeruginosa strain M2; assay: Protection of neutropenic CD-1 mice challenged with Pseudomonas aeruginosa; type: in vivo; parameters: Survival post bacterial challenge, surviving mice: reference not given here; details: for Survival (%) post bacterial challenge: PBS 8
Outline: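 Neutropenia induced by three i.p. cyclophosphamide doses ([…], alternate days); mice then infected i.p. with 200-300 organisms/mouse. Peptides (200 µg/mouse = 8 mg/kg) in buffered citrate given i.p. at 30 min (single) or 30 min and 16 hrs (double) post-challenge; PBS control; mean of 2 experiments.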

[2] = test system: Pseudomonas aeruginosa PAO; assay: Chronic Pseudomonas aeruginosa lung infection in rats, aerosol treatment; type: in vivo; details: lungs, quantitative culture; aerosol 10 ml of 5 mg/ml once daily for three days; untreated control 1.2 × 10^6
Experimental: Fifteen animals were utilized in these experiments (5 animals in each of three groups). All animals were inoculated intratracheal with 10^4 Pseudomonas aeruginosa PAO in agar beads. Three days following inoculation, rats were exposed to aerosol preparations from and Aero-Tech II nebulizer (CIS-US, Bedford, Mass.). The nebulizer was operated at 45 psi, with a flow rate of 10 L/min and contained 10 ml of the preparation to be aerosolized. The 10 ml volume was dispensed in 25-30 minutes. Animals were treated once daily for three days; control animals received daily exposure to 10 mls of 10 mM sodium citrate (pH 7.0); one treatment group received daily exposure to 10 mls of 10 mM sodium citrate (pH 7.0) containing 5 mg/ml of CM3; one treatment group received daily exposure to 10 mls of 10 mM sodium citrate (pH 7.0) containing 5 mg/ml of Cpα2. Animals were sacrificed on day 3, at one hour following the last exposure. The lungs of the treatment and control animals were removed for quantitative culture.

S. aureus = assay: MIC, broth microdilution assay in polypropylene microtiter trays; type: cell-based; details: average of three separate experiments
Outline: (§1)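 Read-out: OD. MIC = lowest peptide conc. giving no OD change over the defined time.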

S. aureus K147 = assay: as above; type: cell-based; details: average of three separate experiments
Outline: as §1

S. epidermis = assay: as above; type: cell-based; details: average of three separate experiments
Outline: as §1

E. coli [3] = assay: as above; type: cell-based; details: average of three separate experiments
Outline: as §1

P. aeruginosa = assay: as above; type: cell-based; details: average of three separate experiments
Outline: as §1

[4] = test system: mutant (Nal B, H744) of P. aeruginosa; assay: microbe, parasite or virus in culture; type: cell-based
Outline: (§2)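 Checkerboard titration in Mueller Hinton broth, peptide against carbenicillin or ciprofloxacin, inoculum 10 μl of 10^−4 dilution of overnight culture, 18-24 h at 37 °C. Combination MIC is the lowest concentration reducing growth >50%. FIC index = A/MIC A + B/MIC B, with ≤~0.5 synergy, 1.0 additivity, >1.0 antagonism.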

[5] = test system: β-lactamase derepressed mutant (H547) of P. aeruginosa; assay: microbe, parasite or virus in culture; type: cell-based; details: P. aeruginosa H547
Outline: as §2

Salmonella typhi = assay: Synergy study (checkerboard titration) with hen white lysozyme; type: cell-based
P. aeruginosa (H103) = assay: as above; type: cell-based
E. coli [6] = assay: as above; type: cell-based
[7] = Lethal endotoxemia in galactosamine-sensitized mice; type: in vivo, CD-1 mice; details: peptide 200 μg intraperitoneal within 10 min of 10 μg LPS; 24 hours post injection; 5 mice per group; no peptide 100
Experimental: To confirm this in vivo, endotoxic shock was induced by intraperitoneal injection of 10 μg of E.coli 0111:B4 LPS in phosphate-buffered saline (PBS; pH 7.2) into galactosamine-sensitized 8- to 10- week old female CD-1 mice (5 per group). In experiments involving peptides, 200 μg in 100 μl of sterile water was injected at separate intraperitoneal sites within 10 min of LPS injection. Survival was monitored at 24 hours post injection.

V. anguillarum [8] = assay: Single intraperitoneal injection of peptide along with V. anguillarum into juvenile coho salmon; type: in vivo; details: single injection of peptide along with bacteria; bacteria alone control 60%
Experimental: (§3) Fish loss from disease is a significant problem in aquaculture worldwide. However, expression of natural cationic peptide genes in fish could increase disease resistance because of continual cellular production of the antimicrobial peptides. In order to choose optimal peptides for transgenic fish, the antimicrobial activities of some cationic peptides were determined by testing minimum inhibitory concentrations (MICs) in vitro. […] The in vivo effect of CEME was examined by intraperitoneal injection of the peptide along with V. anguillarum into juvenile coho salmon. Fish in the bacteria alone control group had 60% mortality, while fish receiving peptide and bacteria injections had 82% mortality. […] Therefore, constant delivery of CEME and Pleurocidin-CN using intraperitoneal mini-osmotic pumps were carried out. Twelve days after pump implantation, the fish received intraperitoneal injections of V. anguillarum. The CEME and pleurocidin-CN pump group had longer survival time and lower mortalities than the control groups (50% Vs. 13%, and 75% Vs. 5%, respectively). Indolicidin transgenic cutthroat trout were made using a construct including an MT promoter, growth hormone signal, pre-region, indolicidin, and terminator. Transgenic individuals were identified by serum analysis using PCR with construct-specific oligonucleotide primers. […]

V. anguillarum [9] = assay: Protection of coho salmon, peptide delivered constantly by intraperitoneal mini-osmotic pump; type: in vivo, juvenile coho salmon; details: CEME by intraperitoneal mini-osmotic pump; control group 50%
Experimental: Constant delivery of peptide P-CN using intraperitoneal mini-osmotic pumps was carried out. Briefly, juvenile coho salmon were divided into three treatment groups: A. Bacterial injection alone (12 fish). B. Fish saline osmotic pump and bacterial injection (12 fish). C. A combination of P-CN osmotic pump and bacterial injection (19 fish). The fish were anaesthetized and implanted (peritoneal cavity) with mini-osmotic pumps having a pumping rate of 0.13 µl/hour. Heaters were placed in the tanks to keep the water temperature between 12 and 13° C. Pumps were filled with concentrated P-CN to deliver approximately […] peptide to fish over a 30-day period. Twelve days after pump implantation, the fish received intraperitoneal injections of V. anguillarum ([…]). Mortalities were first noticed on day 3 for the group injected with bacteria alone and on day 5 for the group which received saline osmotic pumps as well as bacterial injections. However, there was no significant difference in mortality between the bacterial injection alone group and the saline osmotic pump group (67% vs. 75%). Mortalities were delayed for the P-CN osmotic pump group. The P-CN osmotic pump group had only one fish die on day 6 over the 30 days experiments with an accumulated mortality of 5%. […] Furthermore, since cationic peptides are not effective in a single treatment and constant administration is necessary, this argues for the potential success of transgenic fish expressing peptide P-CN.
as §3, with “terminator.” for “terminator. Transgenic individuals were identified by serum analysis using PCR with construct-specific oligonucleotide primers.”

[10] = cationic peptide concentration, combined with lysozyme
[11] = lysozyme concentration, combined with the peptide

In the case of KWKKFIKSLTKSAAKTVVKTAKKPLIV [CM3], the “Survival post bacterial challenge, surviving mice” value (“Survival post bacterial challenge” below) ([1]; double dose (200 μg per mouse i.p. at 30 min and 16 hrs), 16 hr) is reported as 13, the “Survival post bacterial challenge” value ([1]; double dose, 24 hr) is reported as 13 and the “Survival post bacterial challenge” value ([1]; double dose, 41 hr) is reported as 11. The “Survival post bacterial challenge” value ([1]; double dose, 48 hr) was 11, the “Survival post bacterial challenge” value ([1]; double dose, 64 hr) was 10 and the “Survival (%) post bacterial challenge” value ([1]; double dose, 64 hr) was 76%. For the same compound, the “Survival post bacterial challenge” value ([1]; double dose, 72 hr) was 10, the “Survival (%) post bacterial challenge” value ([1]; double dose, 72 hr) was 76% and the “Survival post bacterial challenge” value ([1]; double dose, 96 hr) was 8. For the same compound, the “Survival (%) post bacterial challenge” value ([1]; double dose, 96 hr) was 61%, the “Survival post bacterial challenge” value ([1]; single dose (200 μg per mouse i.p. at 30 min), 16 hr) was 15 and the “Survival post bacterial challenge” value ([1]; single dose, 24 hr) was 15. For the same compound, the “Survival post bacterial challenge” value ([1]; single dose, 41 hr) was 14, the “Survival post bacterial challenge” value ([1]; single dose, 48 hr) was 13 and the “Survival post bacterial challenge” value ([1]; single dose, 64 hr) was 12. For the same compound, the “Survival (%) post bacterial challenge” value ([1]; single dose, 64 hr) was 80%, the “Survival post bacterial challenge” value ([1]; single dose, 72 hr) was 11 and the “Survival (%) post bacterial challenge” value ([1]; single dose, 72 hr) was 73%. For the same compound, the “Survival post bacterial challenge” value ([1]; single dose, 96 hr) was 11, the “Survival (%) post bacterial challenge” value ([1]; single dose, 96 hr) was 73% and the “Mean Colony Forming Units +/− S.D.” value [2] was 7.4 × 10^4 +/− 6.7 × 10^4* CFU. For the same compound, the “MIC S. aureus” value (S. aureus) was >64 µg/mL, the “MIC S. aureus K147” value (S. aureus K147) was >64 µg/mL and the “MIC S. epidermis” value (S. epidermis) was 16 µg/mL. For the same compound, the “MIC E. coli” value (E. coli [3]) was 1 µg/mL, the “MIC P. aeruginosa” value (P. aeruginosa) was 5 µg/mL and the “MIC A MIC of Peptides” value ([4]; peptide alone, P. aeruginosa mutant Nal B, H744 (Table 5)) was 2 µg/mL. For the same compound, the “(A) Peptide doses together with Cipro” value ([4]; peptide concentration in combination with ciprofloxacin, Nal B, H744) was “.5 µg/mL”, the “(B) MIC of Carb when combined with peptide” value ([5]; Carbenicillin with peptide at concentration (A)) was 32 µg/mL and the FIC index ([5]; peptide + Carbenicillin, about 0.5 or less synergy, 1.0 additivity, >1.0 antagonism) was 0.75. For the same compound, the “MIC A MIC of Peptides” value ([5]; peptide alone) was 2 µg/mL, the “(A) Peptide doses together with Carb” value ([5]; peptide concentration in combination with Carbenicillin) was “.5 µg/mL” and the “FIC for combination of cationic peptide and lysozyme” value (from here on “FIC for combination”) (Salmonella typhi) was 0.75. For the same compound, the “Lowest [CP] showing synergy” value (Salmonella typhi; [10]) was 2.61 µg/mL, the “Lowest [Lyso] showing synergy” value (Salmonella typhi; [11]) was 250 µg/mL and the “FIC for combination” value (P. aeruginosa (H103)) was 0.50. The “Lowest [CP] showing synergy” value (P. aeruginosa (H103); [10]) was 1.3 µg/mL, the “Lowest [Lyso] showing synergy” value (P. aeruginosa (H103); [11]) was 15.6 µg/mL and the “FIC for combination” value (E. coli [6]) was 0.31. For the same compound, the “Lowest [CP] showing synergy” value (E. coli [6]; [10]) was 0.041 µg/mL, the “Lowest [Lyso] showing synergy” value (E. coli [6]; [11]) was 15.6 µg/mL and the “Mortality (%)” value [7] was 80%.

For `CC[C@H](C)[C@H](NC(=O)CNC(=O)[C@@H](NC(=O)[C@H](CCCCN)NC(=O)[C@H](CCCCN)NC(=O)[C@H](Cc1ccccc1)NC(=O)[C@H](CC(C)C)NC(=O)[C@H](CCCCN)NC(=O)[C@H](Cc1c[nH]c2ccccc12)NC(=O)[C@@H](N)CCCCN)[C@@H](C)CC)C(=O)NCC(=O)N[C@@H](C)C(=O)N[C@H](C(=O)N[C@@H](CC(C)C)C(=O)N[C@@H](CCCCN)C(=O)N[C@H](C(=O)N[C@@H](CC(C)C)C(=O)N[C@H](C(=O)N[C@H](C(=O)NCC(=O)N[C@@H](CC(C)C)C(=O)N1CCC[C@H]1C(=O)N[C@@H](C)C(=O)N[C@@H](CC(C)C)C(=O)N[C@H](C(=O)N[C@@H](CO)C(=O)O)[C@@H](C)CC)[C@@H](C)O)[C@@H](C)O)C(C)C)C(C)C` [CEME, reference compound], the Mortality (V. anguillarum [8]) was 82% and the “Mortality, pump group” value (V. anguillarum [9]) was 13%.
